Literature values in US20150283242A1, “EFFECTIVE PHARMACEUTICAL CARRIER FOR POORLY BIOAVAILABLE DRUGS” (Hovid Berhad, priority 2007, published 2015).

Point of comparison: `CC[C@H](C)C(=O)O[C@H]1C[C@H](O)C=C2C=C[C@H](C)[C@H](CC[C@@H](O)C[C@@H](O)CC(=O)O)[C@H]21` [pravastatin], “log P (partition coefficient)” value 2.42. Against it:
- Cc1ccc(C)c(OCCCC(C)(C)C(=O)O)c1 [gemfibrozil] — higher, 4.77
- COc1ccc2c(c1)c(CC(=O)O)c(C)n2C(=O)c1ccc(Cl)cc1 [indomethacin] — higher, 4.27

For `COC1=C(OC)C(=O)C(C/C=C(\C)CC/C=C(\C)CC/C=C(\C)CC/C=C(\C)CC/C=C(\C)CC/C=C(\C)CC/C=C(\C)CC/C=C(\C)CC/C=C(\C)CCC=C(C)C)=C(C)C1=O` [ubiquonone], the “log P (partition coefficient)” value is listed as “more than 10”.
